Laboratory results as given in patent US11666575B2, “Pyrazolo[1,5]pyrimidine-based compounds and methods of their use to treat viral infections” (Lexicon Pharmaceuticals, Inc., priority 2020, dated 2023).
Several values for one entry are separate records, joined by “and”; a condition that tells them apart may be missing. Equal values may be shown once. Where a name gives a salt, the structure may show the parent alone. Read-outs that look alike come from different tables or passages of the source.

Experiments:
[1] = system: alpha coronavirus 229E (CoV-229E); test: Inhibition of CoV-229E-induced CPE in MRC-5 cells (XTT); settings: CPE reduction, CoV-229E in MRC-5 cells, 6 days
[2] = system: HCoV-OC43 (Betacoronavirus 1); test: microbe, parasite or virus in culture; assay type: cell-based; settings: for EC50: read-out: Efficacy
HCoV-OC43 = test: OC43 CPE assay in Huh-7 cells (neutral red uptake); assay type: cell-based, Human coronavirus OC43; settings: for Raw OD - Absorbance 490 nm: infected Huh-7, neutral red uptake, individual replicate; for EC50: Betacoronavirus 1, OC43, 144 h, 6 days, neutral red uptake
H292 cells (NCI-H292) = test: Cytotoxicity in uninfected H292 cells (MTT)
in vitro [3] = settings: human
Huh-7 cells = test: Cytotoxicity / viability of uninfected Huh-7 cells (XTT); settings: for Viability of Huh-7 Cells (A490): 6 days, individual raw data; for Viability (A490): cytotoxic control, raw data, Huh-7
[4] = as above; settings: human, uninfected Huh-7 cells
in vitro [5] = settings: human; remark: listed apart in the source
[6] = Betacoronavirus 1, OC43, NCI-H292, 144 h
[7] = CC50, uninfected H292 cells, MTT, 6 days
[8] = Betacoronavirus 1, NCI-H292, 144 h, EC50, HCoV-OC43-infected H292 cells, MTT, 6 days
[9] = Betacoronavirus 1, OC43, Huh-7, 0.01 μM, average ± SD of duplicates, read-out: Inhibition of OC43 Virus-Induced CPE in Huh-7 Cells
[10] = Betacoronavirus 1, OC43, Huh-7, 0.04 μM, average ± SD of duplicates, read-out: Inhibition of OC43 Virus-Induced CPE in Huh-7 Cells
[11] = Betacoronavirus 1, OC43, Huh-7, 0.12 μM, average ± SD of duplicates, read-out: Inhibition of OC43 Virus-Induced CPE in Huh-7 Cells
[12] = Betacoronavirus 1, OC43, Huh-7, 0.4 μM, average ± SD of duplicates, read-out: Inhibition of OC43 Virus-Induced CPE in Huh-7 Cells
[13] = Betacoronavirus 1, OC43, Huh-7, 1.1 μM, average ± SD of duplicates, read-out: Inhibition of OC43 Virus-Induced CPE in Huh-7 Cells
[14] = Betacoronavirus 1, OC43, Huh-7, 10 μM, average ± SD of duplicates, read-out: Inhibition of OC43 Virus-Induced CPE in Huh-7 Cells
[15] = Betacoronavirus 1, OC43, Huh-7, 30 μM, average ± SD of duplicates, read-out: Inhibition of OC43 Virus-Induced CPE in Huh-7 Cells

In the case of `CCN(CC)CCCC(C)Nc1ccnc2cc(Cl)ccc12` (stereo not drawn) [Chloroquine], the EC50 [1] is reported as 490 nM, the EC50 [2, 6] is reported as 400 nM and the “antiviral effect against β-coronavirus OC43 in H292 cells” value ([2]; 6 days) is reported as “antiviral effect”. The “prevention of virus-induced CPE” value (HCoV-OC43; 6-day assay, Huh-7 cells) was “potently prevented the virus-induced CPE”, the inhibition at 5 µM (HCoV-OC43; Betacoronavirus 1, OC43, Huh-7, read-out: Inhibition of OC43 Virus-Induced CPE in Huh-7 Cells, 5 μM, control inhibitor, relative to uninfected cells (mock)) was roughly 88% and the Cytotoxicity (H292 cells (NCI-H292); [7]) was 46.04 µM.

Work on `COc1ncccc1-c1cnn2ccc(N3CCN(C(=O)OC4(C)COC4)CC3)nc12` [Compound 1, 3-methyloxetan-3-yl-4-(3-(2-methoxypyridin-3-yl)pyrazolo[1,5-a]pyrimidin-5-yl)piperazine-1-carboxylate] yielded a viability at 6 days, 0.01 µM (in vitro [3]) of 96.9 ± 0.8%, a viability at 6 days, 0.04 µM (in vitro [3]) of 100.4 ± 0.7% and a viability at 6 days, 0.12 µM (in vitro [3]) of 91.4 ± 1.8%. The viability at 6 days, 0.37 µM (in vitro [3]) was 88.8 ± 2.2%, the viability at 6 days, 1.1 µM (in vitro [3]) was 104 ± 2.9% and the viability at 6 days, 3.3 µM (in vitro [3]) was 113 ± 4.4%. It also gave a viability at 6 days, 10 µM (in vitro [3]) of 117 ± 4.5%, a viability at 6 days, 30 µM (in vitro [3]) of 111 ± 5.3% and a viability at 6 days, 90 µM (in vitro [3]) of 57.1 ± 4.9%. For the same compound, the “Viability of Huh-7 Cells (A490)” value (Huh-7 cells; 0.01 μM, XTT, listed as Compd. 1) was 0.724 and 0.716, the “Viability of Huh-7 Cells (A490)” value (Huh-7 cells; 0.04 μM, XTT, listed as Compd. 1) was 0.748 and 0.941 and the “Viability of Huh-7 Cells (A490)” value (Huh-7 cells; 0.12 μM, XTT, listed as Compd. 1) was 0.673 and 0.691. The “Viability of Huh-7 Cells (A490)” value (Huh-7 cells; 0.37 μM, XTT, listed as Compd. 1) was 0.675 and 0.654, the “Viability of Huh-7 Cells (A490)” value (Huh-7 cells; 1.1 μM, XTT, listed as Compd. 1) was 0.758 and 0.786 and the “Viability of Huh-7 Cells (A490)” value (Huh-7 cells; 3.3 μM, XTT, listed as Compd. 1) was 0.807 and 0.850. For the same compound, the “Viability of Huh-7 Cells (A490)” value (Huh-7 cells; 10 μM, XTT, listed as Compd. 1) was 0.878 and 0.834, the “Viability of Huh-7 Cells (A490)” value (Huh-7 cells; 30 μM, XTT, listed as Compd. 1) was 0.844 and 0.792 and the “Viability of Huh-7 Cells (A490)” value (Huh-7 cells; 90 μM, XTT, listed as Compd. 1) was 0.421 and 0.469. The EC50 [1] was greater than 10000 nM, the EC50 [2, 8] was 9310 nM and the “antiviral effect against β-coronavirus OC43 in H292 cells” value ([2]; 6 days) was “significant antiviral effect”. The “viability of infected H292 cells” value ([2]; HCoV-OC43 infected, FIG. 6) was “increased with increased concentrations”, the “Raw OD - Absorbance 490 nm” value (HCoV-OC43; 0.01 μM, listed as Compd. 1) was 0.102 and 0.108 and the “Raw OD - Absorbance 490 nm” value (HCoV-OC43; 0.04 μM, listed as Compd. 1) was 0.100 and 0.097. The “Raw OD - Absorbance 490 nm” value (HCoV-OC43; 0.12 μM, listed as Compd. 1) was 0.092 and 0.094, the “Raw OD - Absorbance 490 nm” value (HCoV-OC43; 0.4 μM, listed as Compd. 1) was 0.087 and 0.096 and the “Raw OD - Absorbance 490 nm” value (HCoV-OC43; 1.1 μM, listed as Compd. 1) was 0.102 and 0.104. For the same compound, the “Raw OD - Absorbance 490 nm” value (HCoV-OC43; 3.3 μM, listed as Compd. 1) was 0.105 and 0.103, the “Raw OD - Absorbance 490 nm” value (HCoV-OC43; 10 μM, listed as Compd. 1) was 0.115 and 0.117 and the “antiviral effect at 30 μM” value (HCoV-OC43; 30 μM, Huh-7 cells, likely due to compound-induced toxicity) was “disappeared”. For the same compound, the “Raw OD - Absorbance 490 nm” value (HCoV-OC43; 30 μM, listed as Compd. 1) was 0.076 and 0.072, the EC50 (HCoV-OC43; Huh-7 cells) was greater than 30000 nM and the inhibition at 0.01 µM (HCoV-OC43; [9]) was -0.2 ± 0.6%. The inhibition at 0.04 µM (HCoV-OC43; [10]) was -0.8 ± 0.4%, the inhibition at 0.12 µM (HCoV-OC43; [11]) was -1.7 ± 0.2% and the inhibition at 0.4 µM (HCoV-OC43; [12]) was -1.9 ± 0.8%. The inhibition at 1.1 µM (HCoV-OC43; [13]) was -0.2 ± 0.2%, the inhibition at 3.3 µM (HCoV-OC43; Betacoronavirus 1, OC43, Huh-7, 3.3 μM, average ± SD of duplicates, read-out: Inhibition of OC43 Virus-Induced CPE in Huh-7 Cells) was 0% and the inhibition at 10 µM (HCoV-OC43; [14]) was 1.8 ± 0.3%. The inhibition at 30 µM (HCoV-OC43; [15]) was -4.5 ± 0.5%, the Cytotoxicity (H292 cells (NCI-H292); [7]) was greater than 300 µM and the “viability of uninfected H292 cells” value (H292 cells (NCI-H292); with increased concentrations, FIG. 6) was “did not change significantly”.

`CC[C@H]1CN2CCc3cc(OC)c(OC)cc3[C@@H]2C[C@@H]1C[C@H]1NCCc2cc(OC)c(OC)cc21` [Emetine] showed a cytotoxicity at 6 days, 5 μM [4] greater than 90%, a viability at 6 days, 1 µM [4] of 18.3 ± 0.3% and a viability at 6 days, 5 µM [4] of 8.2 ± 0.7%. The “Viability (A490)” value (Huh-7 cells; 1 μm) was 0.176 and 0.179, the “Viability (A490)” value (Huh-7 cells; 5 μm) was 0.104 and 0.111 and the “inhibition of cell viability” value (Huh-7 cells; tested at 5 μM, XTT) was “more than 90%”.

For `CCC(CC)COC(=O)[C@H](C)N[P@](=O)(OC[C@H]1O[C@@](C#N)(c2ccc3c(N)ncnn23)[C@H](O)[C@@H]1O)Oc1ccccc1` [Remdesivir], the EC50 [1] was 130 nM, the EC50 [2, 6] was 37500 nM and the CC50 at 6 days (in vitro [5]) was greater than 2000 nM. It also gave a Cytotoxicity (H292 cells (NCI-H292); [7]) greater than 20 µM.

Compound `CCN(CC)CCNC(=O)c1c(C)[nH]c(/C=C2\C(=O)Nc3ccc(F)cc32)c1C` [Sunitinib maleate, sunitinib malate] has a CC50 at 6 days (in vitro [3]) of 13000 nM, a viability at 6 days, 0.01 µM (in vitro [3]) of 92 ± 7.2% and a viability at 6 days, 0.04 µM (in vitro [3]) of 100 ± 1.3%. The viability at 6 days, 0.12 µM (in vitro [3]) was 99.1 ± 3.4%, the viability at 6 days, 0.37 µM (in vitro [3]) was 101 ± 3.4% and the viability at 6 days, 1.1 µM (in vitro [3]) was 89.7 ± 1.1%. For the same compound, the viability at 6 days, 3.3 µM (in vitro [3]) was 82.6 ± 4.2%, the viability at 6 days, 10 µM (in vitro [3]) was 72 ± 1.1% and the viability at 6 days, 30 µM (in vitro [3]) was 0.8 ± 0.3%. The viability at 6 days, 90 µM (in vitro [3]) was 0.4 ± 0.1%, the “Viability of Huh-7 Cells (A490)” value (Huh-7 cells; 0.01 μM, XTT) was 0.721 and 0.651 and the “Viability of Huh-7 Cells (A490)” value (Huh-7 cells; 0.04 μM, XTT) was 0.738 and 0.751. For the same compound, the “Viability of Huh-7 Cells (A490)” value (Huh-7 cells; 0.12 μM, XTT) was 0.719 and 0.752, the “Viability of Huh-7 Cells (A490)” value (Huh-7 cells; 0.37 μM, XTT) was 0.732 and 0.765 and the “Viability of Huh-7 Cells (A490)” value (Huh-7 cells; 1.1 μM, XTT) was 0.676 and 0.665. For the same compound, the “Viability of Huh-7 Cells (A490)” value (Huh-7 cells; 3.3 μM, XTT) was 0.642 and 0.601, the “Viability of Huh-7 Cells (A490)” value (Huh-7 cells; 10 μM, XTT) was 0.543 and 0.554 and the “Viability of Huh-7 Cells (A490)” value (Huh-7 cells; 30 μM, XTT) was 0.058 and 0.055. For the same compound, the “Viability of Huh-7 Cells (A490)” value (Huh-7 cells; 90 μM, XTT) was 0.053 and 0.054, the “Raw OD - Absorbance 490 nm” value (HCoV-OC43; 0.01 μM) was 0.120 and the “Raw OD - Absorbance 490 nm” value (HCoV-OC43; 0.04 μM) was 0.094. For the same compound, the “Raw OD - Absorbance 490 nm” value (HCoV-OC43; 0.4 μM) was 0.086 and 0.090, the “Raw OD - Absorbance 490 nm” value (HCoV-OC43; 1.1 μM) was 0.094 and the “Raw OD - Absorbance 490 nm” value (HCoV-OC43; 3.3 μM) was 0.312 and 0.136. The “Raw OD - Absorbance 490 nm” value (HCoV-OC43; 10 μM) was 0.214 and 0.280, the “Raw OD - Absorbance 490 nm” value (HCoV-OC43; 30 μM) was 0.051 and 0.053 and the EC50 (HCoV-OC43; Huh-7 cells) was greater than 30000 nM. For the same compound, the inhibition at 3.3 µM (HCoV-OC43; Betacoronavirus 1, OC43, Huh-7, read-out: Inhibition of OC43 Virus-Induced CPE in Huh-7 Cells) was 17.9 ± 18.5%, the inhibition at 0.01 µM (HCoV-OC43; [9]) was 1.1 ± 1.9% and the inhibition at 0.04 µM (HCoV-OC43; [10]) was -1.2 ± 0.4%. It also gave an inhibition at 0.12 µM (HCoV-OC43; [11]) of -0.1 ± 0.4%, an inhibition at 0.4 µM (HCoV-OC43; [12]) of -2.4 ± 0.4% and an inhibition at 1.1 µM (HCoV-OC43; [13]) of -1 ± 0.8%. The inhibition at 10 µM (HCoV-OC43; [14]) was 21.4 ± 7% and the inhibition at 30 µM (HCoV-OC43; [15]) was -7.8 ± 0.2%.

Compound `CCN(CC)CCNC(=O)c1c(C)[nH]c(/C=C2\C(=O)Nc3ccc(F)cc32)c1C` [Sunitinib] has an EC50 [2, 8] of 406 nM, a CC50 at 6 days (in vitro [5]; uninfected MRC-5 cells) of 1320 nM and a Cytotoxicity (H292 cells (NCI-H292)) of 10 to 50 µM.
